This passage reports Ki results from article PMC9848269, “Investigation of novel alkyl/benzyl (4-sulphamoylphenyl)carbamimidothioates as carbonic anhydrase inhibitors” (Journal of Enzyme Inhibition and Medicinal Chemistry, 2023).

Common to all, as to design: stopped-flow CO2 hydration assay, phenol red absorbance at 557 nm, Ki via Cheng-Prusoff
The target of one assay is T1, hCA I (Homo sapiens, UniProt P00915).
T1 construct: gene CA1; recombinant, obtained in-house; cytosolic
As to the kind of experiment: biochemical. How it is done: (§1) An applied photophysics stopped-flow instrument has been used for assaying the CA-catalysed CO2 hydration activity. Phenol red (at a concentration of 0.2 mM) was used as indicator, working at the absorbance maximum of 557 nm, with 20 mM Hepes (pH 7.5) as buffer for α-CAs or 20 mM TRIS (pH 8.4) as buffer for β-CAs, and 20 mM Na2SO4 (for maintaining constant the ionic strength), following the initial rates of the CA-catalysed CO2 hydration reaction for a period of 10 – 100 s. The CO2 concentrations ranged from 1.7 to 17 mM for the determination of the kinetic parameters and inhibition constants. For each inhibitor, at least six traces of the initial 5 – 10% of the reaction have been used for determining the initial velocity. The uncatalysed rates were determined in the same manner and subtracted from the total observed rates. Stock solutions of inhibitor (0.1 mM) were prepared in distilled – deionised water, and dilutions up to 0.01 nM were done thereafter with the assay buffer. Inhibitor and enzyme solutions were preincubated together for 6 h at room temperature prior to assay in order to allow for the formation of the E – I complex. The inhibition constants were obtained by nonlinear least-squares methods using PRISM 3 and the Cheng–Prusoff equation, as reported earlier[12]^,[13]^,[20]^,[21], and represent the mean from at least three different determinations. All CA isoforms were recombinant ones obtained in-house as reported earlier[22]^,[23] and their concentrations in the assay system ranged between 7.6–12.5 nM. Sulphonamides 8a–o incorporating carbamimidothioate moieties have been tested as inhibitors of four human (h) CA isoforms, the cytosolic hCA I, II, VII and XIII, as well as the bacterial β-CAs from Mammaliicoccus (Staphylococcus) sciuri[14] and Salmonella enterica (serovar Typhimurium), StCA1 and StCA2[15]. It should be mentioned that the first bacterial enzyme, MscCA, was originally reported by us as Staphylococcus aureus β-CA, SauCA based on a genomic sequence annotated in the data bases in 2017[14]. […] In 2020, the species was renamed as belonging to a new genus, as Mammaliicoccus sciuri. The hCAs included in the study were the ubiquitous hCA I and II, as well as hCA VII and XIII which are found in fewer tissues compared to hCA I and II, and are involved in several pathologies in the CNS (hCA VII) or reproductive tract (hCA XIII)[17]^,[18].

The target in another assay is T2, hCA II (Homo sapiens, UniProt P00918).
T2 construct: gene CA2; recombinant, obtained in-house; cytosolic
Put plainly: biochemical. How it is done: as §1

A further assay concerns the target T3, hCA VII (Homo sapiens, UniProt P43166).
T3 construct: gene CA7; recombinant, obtained in-house; cytosolic
As to the kind of experiment: biochemical. How it is done: as §1

The next assay deals with T4, hCA XIII (Homo sapiens, UniProt Q8N1Q1).
T4 construct: gene CA13; recombinant, obtained in-house; cytosolic
As to the kind of experiment: biochemical. The procedure:
as §1

The next assay has as its target T5, StCA2 (Salmonella enterica, UniProt O30898).
T5 construct: gene mig-5; recombinant, obtained in-house; beta-class CA
T5 sequence (O30898 41-246): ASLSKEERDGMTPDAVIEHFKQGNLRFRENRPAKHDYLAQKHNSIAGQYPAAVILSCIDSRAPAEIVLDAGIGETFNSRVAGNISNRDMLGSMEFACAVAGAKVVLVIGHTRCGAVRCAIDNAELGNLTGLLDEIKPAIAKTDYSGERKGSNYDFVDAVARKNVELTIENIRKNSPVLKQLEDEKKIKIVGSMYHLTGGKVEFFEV
To be noted: inhibitor. The procedure:
An applied photophysics stopped-flow instrument has been used for assaying the CA-catalysed CO2 hydration activity. Phenol red (at a concentration of 0.2 mM) was used as indicator, working at the absorbance maximum of 557 nm, with 20 mM Hepes (pH 7.5) as buffer for α-CAs or 20 mM TRIS (pH 8.4) as buffer for β-CAs, and 20 mM Na2SO4 (for maintaining constant the ionic strength), following the initial rates of the CA-catalysed CO2 hydration reaction for a period of 10 – 100 s. The CO2 concentrations ranged from 1.7 to 17 mM for the determination of the kinetic parameters and inhibition constants. For each inhibitor, at least six traces of the initial 5 – 10% of the reaction have been used for determining the initial velocity. The uncatalysed rates were determined in the same manner and subtracted from the total observed rates. Stock solutions of inhibitor (0.1 mM) were prepared in distilled – deionised water, and dilutions up to 0.01 nM were done thereafter with the assay buffer. Inhibitor and enzyme solutions were preincubated together for 6 h at room temperature prior to assay in order to allow for the formation of the E – I complex. The inhibition constants were obtained by nonlinear least-squares methods using PRISM 3 and the Cheng–Prusoff equation, as reported earlier[12]^,[13]^,[20]^,[21], and represent the mean from at least three different determinations. […]

T3 sequence (P43166 whole entry): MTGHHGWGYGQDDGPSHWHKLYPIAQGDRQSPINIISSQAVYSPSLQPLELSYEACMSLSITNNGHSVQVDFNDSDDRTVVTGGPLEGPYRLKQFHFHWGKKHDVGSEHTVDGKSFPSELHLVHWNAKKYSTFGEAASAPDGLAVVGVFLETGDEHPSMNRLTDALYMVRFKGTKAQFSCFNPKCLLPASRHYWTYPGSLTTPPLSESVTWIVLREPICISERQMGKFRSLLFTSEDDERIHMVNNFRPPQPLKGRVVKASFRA
T4 sequence (Q8N1Q1 whole entry): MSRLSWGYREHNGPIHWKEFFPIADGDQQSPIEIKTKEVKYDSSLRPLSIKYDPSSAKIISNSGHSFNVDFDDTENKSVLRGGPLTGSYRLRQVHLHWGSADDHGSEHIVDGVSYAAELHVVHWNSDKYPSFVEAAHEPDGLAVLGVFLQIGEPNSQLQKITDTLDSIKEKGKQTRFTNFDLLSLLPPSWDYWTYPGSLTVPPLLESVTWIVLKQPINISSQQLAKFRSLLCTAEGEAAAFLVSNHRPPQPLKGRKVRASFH
T1 sequence (P00915 2-261): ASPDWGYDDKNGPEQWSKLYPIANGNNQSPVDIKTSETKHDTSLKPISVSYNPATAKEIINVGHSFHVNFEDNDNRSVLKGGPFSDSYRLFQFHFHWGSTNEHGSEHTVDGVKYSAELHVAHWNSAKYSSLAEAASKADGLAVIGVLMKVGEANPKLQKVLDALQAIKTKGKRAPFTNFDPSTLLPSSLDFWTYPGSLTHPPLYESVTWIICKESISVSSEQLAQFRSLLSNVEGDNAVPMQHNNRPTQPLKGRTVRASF

What is called Ki is a measure of affinity in units of concentration, obtained from inhibition or displacement. For `CCCCCCSC(=N)Nc1ccc(S(N)(=O)=O)cc1` [8c, Hexyl (4-sulphamoylphenyl)carbamimidothioate], the inhibitory constant (Ki) was found to be 78.8 nM on hCA I; 2.5 nM on hCA II; 2.3 nM on hCA VII; 92.2 nM at hCA XIII; 898 nM on StCA2.
